These results are taken from US20050070510A1, “Substituted tetracycline compounds as synergistic antifungal agents” (Paratek Pharmaceuticals, Inc., priority 2001, published 2005).

The series has as its system COS-1 cells. The series is described as follows: In vitro mammalian cytotoxicity assay (Resazurin). Background: The colour change of resazurin is a common sign of viable cells or microbes.
`CCc1cc(-c2ccc(N(C)C)cc2)c2c(c1O)C(=O)C1=C(O)[C@]3(C#N)C(=O)C(C(N)=O)=C(O)[C@@H](N(C)C)[C@]3(N)C[C@]1(N)C2` [PE]: the “In Vitro Cytotoxicity” value is given as “** (toxicities less than 25 μg/mL are represented by **)”.

As for `CN(C)[C@@H]1C(O)=C(C(N)=O)C(=O)[C@@]2(C#N)C(O)=C3C(=O)c4c(O)ccc(CNCc5ccc[nH]5)c4C[C@@]3(N)C[C@@]12N` [SI], the “In Vitro Cytotoxicity” value was “* (toxicities greater than >25 μg/ml are represented by *)”. In the case of `COc1ccc(NC(=O)Nc2cc(N(C)C)c3c(c2O)C(=O)C2=C(O)[C@]4(C#N)C(=O)C(C(N)=O)=C(O)[C@@H](N(C)C)[C@]4(N)C[C@]2(N)C3)cc1` [IE], the “In Vitro Cytotoxicity” value is reported as “* (toxicities greater than >25 μg/ml are represented by *)”. As to `CN(C)c1cc(C#Cc2ccc(F)cc2)c(O)c2c1C[C@@]1(N)C[C@@]3(N)[C@H](N(C)C)C(O)=C(C(N)=O)C(=O)[C@@]3(C#N)C(O)=C1C2=O` [FF], the “In Vitro Cytotoxicity” value is on record as “** (toxicities less than 25 μg/mL are represented by **)”.

As for `CCCC(C)(C)NC(=O)C1=C(O)[C@@H](N(C)C)[C@]2(N)[C@@H](O)[C@@]3(N)C(=C(O)[C@]2(C#N)C1=O)C(=O)c1c(O)ccc(N(C)C)c1[C@@H]3N` [BE], the “In Vitro Cytotoxicity” value is on record as “** (toxicities less than 25 μg/mL are represented by **)”. The same measure for `Cc1cccnc1-c1ccc(O)c2c1C[C@@]1(N)C[C@@]3(N)[C@H](N(C)C)C(O)=C(C(N)=O)C(=O)[C@@]3(C#N)C(O)=C1C2=O` [UW]: “* (toxicities greater than >25 μg/ml are represented by *)”; for `CN(C)[C@@H]1C(O)=C(C(N)=O)C(=O)[C@@]2(C#N)C(O)=C3C(=O)c4c(O)ccc(CCc5ccccc5)c4C[C@@]3(N)C[C@@]12N` [IN]: “** (toxicities less than 25 μg/mL are represented by **)”. On to `CN(C)[C@@H]1C(O)=C(C(N)=O)C(=O)[C@@]2(C#N)C(O)=C3C(=O)c4c(O)ccc(CNCc5cccn5C)c4C[C@@]3(N)C[C@@]12N` [SH], for which the “In Vitro Cytotoxicity” value is “* (toxicities greater than >25 μg/ml are represented by *)”. Consider `CCC(=O)O[C@H]1[C@@]2(N)C(=C(O)[C@]3(C#N)C(=O)C(C(N)=O)=C(O)[C@@H](N(C)C)[C@]13N)C(=O)c1c(ccc(NC(=O)Nc3cccc4ccccc34)c1O)[C@@H]2N` [BL], for which the “In Vitro Cytotoxicity” value is reported as “* (toxicities greater than >25 μg/ml are represented by *)”.

Turning to `CC(=O)c1ccc(-c2cc(N(C)C)c3c(c2O)C(=O)C2=C(O)[C@]4(C#N)C(=O)C(C(N)=O)=C(O)[C@@H](N(C)C)[C@]4(N)C[C@]2(N)C3)cc1` [Compound HJ, 9-(4′-Acetylphenyl) Minocycline], the “In Vitro Cytotoxicity” value is on record as “** (toxicities less than 25 μg/mL are represented by **)”.

Consider `COc1ccc(CN2CCOCC2)cc1-c1ccc(O)c2c1C[C@@]1(N)C[C@@]3(N)[C@H](N(C)C)C(O)=C(C(N)=O)C(=O)[C@@]3(C#N)C(O)=C1C2=O` [HU], for which the “In Vitro Cytotoxicity” value is “* (toxicities greater than >25 μg/ml are represented by *)”. The same measure for `CCCC(Nc1ccc2c(c1O)C(=O)C1=C(O)[C@]3(C#N)C(=O)C(C(N)=O)=C(O)[C@@H](N(C)C)[C@]3(N)[C@@H](O)[C@]1(N)[C@H]2N)C(=O)OCC` (stereo partly shown) [CG]: “** (toxicities less than 25 μg/mL are represented by **)”; for `CN(C)[C@@H]1C(O)=C(C(N)=O)C(=O)[C@@]2(C#N)C(O)=C3C(=O)c4c(O)ccc(-c5ccccc5Cl)c4C[C@@]3(N)C[C@@]12N` [GM]: “** (toxicities less than 25 μg/mL are represented by **)”; for `CN(C)[C@@H]1C(O)=C(C(N)=O)C(=O)[C@@]2(C#N)C(O)=C3C(=O)c4c(ccc(/C=C/c5ccc(F)cc5)c4O)[C@H](N)[C@@]3(N)[C@H](O)[C@@]12N` [CE]: “** (toxicities less than 25 μg/mL are represented by **)”. The same measure for `CN(C)[C@@H]1C(O)=C(C(N)=O)C(=O)[C@@]2(C#N)C(O)=C3C(=O)c4c(O)ccc(C#CCNS(C)(=O)=O)c4C[C@@]3(N)C[C@@]12N` [IQ]: “* (toxicities greater than >25 μg/ml are represented by *)”; for `CN(C)[C@@H]1C(O)=C(C(N)=O)C(=O)[C@@]2(C#N)C(O)=C3C(=O)c4c(O)ccc(-c5ccc(CNCCc6ccc(Cl)cc6)cc5)c4C[C@@]3(N)C[C@@]12N` [OF]: “** (toxicities less than 25 μg/mL are represented by **)”. In the case of `CC(=O)C(N)c1cc(C(C)(C)C)c(O)c2c1C[C@@]1(N)C[C@@]3(N)[C@H](N(C)C)C(O)=C(C(N)=O)C(=O)[C@@]3(C#N)C(O)=C1C2=O` (stereo partly shown) [NN], the “In Vitro Cytotoxicity” value is reported as “* (toxicities greater than >25 μg/ml are represented by *)”. As for `CN(C)[C@@H]1C(O)=C(C(N)=O)C(=O)[C@@]2(C#N)C(O)=C3C(=O)c4c(O)cccc4C(N)[C@@]3(N)[C@H](O)[C@@]12N` (stereo partly shown) [CZ], the “In Vitro Cytotoxicity” value was “** (toxicities less than 25 μg/mL are represented by **)”.

Take `CCC(=O)c1ccc(O)c2c1C[C@@]1(N)C[C@@]3(N)[C@H](N(C)C)C(O)=C(C(N)=O)C(=O)[C@@]3(C#N)C(O)=C1C2=O` [LI]: the “In Vitro Cytotoxicity” value is listed as “** (toxicities less than 25 μg/mL are represented by **)”.

For the compound `Cc1ncsc1/C=C/c1ccc(O)c2c1C[C@@]1(N)C[C@@]3(N)[C@H](N(C)C)C(O)=C(C(N)=O)C(=O)[C@@]3(C#N)C(O)=C1C2=O` [HE], the “In Vitro Cytotoxicity” value is “** (toxicities less than 25 μg/mL are represented by **)”.

With `CC(=O)c1ccc(O)c2c1C[C@@]1(N)C[C@@]3(N)[C@H](N(C)C)C(O)=C(C(N)=O)C(=O)[C@@]3(C#N)C(O)=C1C2=O` [GR], the “In Vitro Cytotoxicity” value is given as “* (toxicities greater than >25 μg/ml are represented by *)”. As for `CCc1cc(CC)c2c(c1O)C(=O)C1=C(O)[C@]3(C#N)C(=O)C(C(N)=O)=C(O)[C@@H](N(C)C)[C@]3(N)C[C@]1(N)C2` [LF], the “In Vitro Cytotoxicity” value is recorded as “** (toxicities less than 25 μg/mL are represented by **)”. The same measure for `CN(C)c1cc(CCCNS(C)(=O)=O)c(O)c2c1C[C@@]1(N)C[C@@]3(N)[C@H](N(C)C)C(O)=C(C(N)=O)C(=O)[C@@]3(C#N)C(O)=C1C2=O` [JX]: “* (toxicities greater than >25 μg/ml are represented by *)”. As to `CN(C)[C@@H]1C(O)=C(C(N)=O)C(=O)[C@@]2(C#N)C(O)=C3C(=O)c4c(O)ccc(/C=C/C(=O)OC(C)(C)C)c4C[C@@]3(N)C[C@@]12N` [JD], the “In Vitro Cytotoxicity” value is given as “* (toxicities greater than >25 μg/ml are represented by *)”. The entry for `CN(C)c1ccc(O)c2c1C[C@@]1(N)C[C@@]3(N)[C@H](N(C)C)C(O)=C(C(=O)NCNC(=O)CCl)C(=O)[C@@]3(C#N)C(O)=C1C2=O` [KG] is “** (toxicities less than 25 μg/mL are represented by **)”. For the compound `CN(C)[C@@H]1C(O)=C(C(N)=O)C(=O)[C@@]2(C#N)C(O)=C3C(=O)c4c(O)ccc(-c5ccccc5)c4C[C@@]3(N)C[C@@]12N` [CX], the “In Vitro Cytotoxicity” value is on record as “* (toxicities greater than >25 μg/ml are represented by *)”. The same measure for `CCc1cc(C(C)=O)c(O)c2c1C[C@@]1(N)C[C@@]3(N)[C@H](N(C)C)C(O)=C(C(N)=O)C(=O)[C@@]3(C#N)C(O)=C1C2=O` [RJ]: “** (toxicities less than 25 μg/mL are represented by **)”; for `CN(C)c1cc(NC(=O)NC(=O)c2ccccc2)c(O)c2c1C[C@@]1(N)C[C@@]3(N)[C@H](N(C)C)C(O)=C(C(N)=O)C(=O)[C@@]3(C#N)C(O)=C1C2=O` [IK]: “* (toxicities greater than >25 μg/ml are represented by *)”.
